Source: patent publication US9072301B2 (priority 2012, dated 2015)

melting point	SMILES
159 °C	CC1OC(=O)c2ncnc(NCCc3ccc(Oc4ccnc(C(F)(F)F)c4)cc3F)c21 (centres unmarked)
178 °C	COc1cc(CCNc2ncnc3cnn(C)c23)ccc1Oc1ccnc(C(F)(F)F)c1 [I-10, N-[2-[3-methoxy-4-[[2-(trifluoromethyl)-4-pyridyl]oxy]phenyl]ethyl]-1-methyl-pyrazolo[4,3-d]pyrimidin-7-amine]
